The text below walks through data of patent US20170071203A1, “Active compound combinations having insecticidal properties” (BAYER CROPSCIENCE AKTIENGESELLSCHAFT, priority 2014, published 2017).

Common to all, as to assay type: in vivo
Experiment [1] deals with green peach aphid (Myzus persicae). As to the kind of experiment: Myzus persicae - spray test. The source says:
(§1) The expected activity for a given combination of two active compounds can be calculated according to S. R. Colby, Weeds 15 (1967), 20-22 as follows:
(§2) • X is the kill rate, expressed in % of the untreated control, when active compound A is applied at an application rate of m g/ha or at a concentration of m ppm, • Y is the kill rate, expressed in % of the untreated control, when active compound B is applied at an application rate of n g/ha or at a concentration of n ppm and • E is the kill rate, expressed in % of the untreated control, when active compounds A and B is applied at application rates of m and n g/ha or at a concentration of m and n ppm, then
(§3) If the observed insecticidal efficacy of the combination is higher than the one calculated as “E”, then the combination of the two compounds is more than additive, i.e., there is a synergistic effect.
(§4) To produce a suitable preparation of active compound, 1 part by weight of active compound is mixed with the stated amount of solvents and is diluted with water, containing an emulsifier concentration of 1000 ppm, to the desired concentration. To produce a suitable preparation of a spore suspension the spores are diluted with emulsifier containing water to the desired concentration. Further test concentrations are prepared by dilution with emulsifier containing water.
Chinese cabbage (Brassica pekinensis) leaf disks infected with all instars of the green peach aphid (Myzus persicae), are sprayed with a preparation of the active ingredient of the desired concentration.
After the specified period of time, mortality in % is determined 100% means all aphids have been killed; 0% means none of the aphids have been killed. The mortality values determined thus are recalculated using the Colby-formula (see sheet 1).

For experiment [2], the system named is two spotted spidermite (Tetranychus urticae). Nature of the experiment: Tetranychus urticae - spray test, OP-resistant.
Excerpt: as §1, §2, §3, §4
French bean (Phaseolus vulgaris) leaf disks which are heavily infested with all stages of the two spotted spidermite (Tetranychus urticae), are sprayed with a preparation of the active ingredient of the desired concentration.
After the specified period of time, mortality in % is determined. 100% means all spider mites have been killed and 0% means none of the spider mites have been killed. The mortality values determined thus are recalculated using the Colby-formula (see sheet 1).

Experiment [3] deals with larvae of the cotton boll worm (Heliothis armigera). Nature of the experiment: Heliothis armigera - spray test.
Excerpt: as §1, §2, §3
To produce a suitable preparation of active compound, 1 part by weight of active compound is mixed with the stated amount of solvent and is diluted with water, containing an emulsifier concentration of 1000 ppm, to the desired concentration. Further test concentrations are prepared by dilution with emulsifier containing water Ammonium salt and/or penetration enhancer in a dosage of 1000 ppm are added to the desired concentration if necessary.
Cotton plants (Gossypium hirsutum) are treated by being sprayed with the preparation of the active compound of the desired concentration and are infested with larvae of the cotton boll worm (Heliothis armigera).
After the specified period of time, the mortality in % is determined 100% means all caterpillars have been killed; 0% means none of the caterpillars have been killed. The mortality values determined thus are recalculated using the Colby-formula (see sheet 1).

For experiment [4], the system named is mustard beetle larvae (Phaedon cochleariae). As to the kind of experiment: Phaedon cochleariae - spray test. Conditions: 20 g ai/ha.
Excerpt: as §1, §2, §3
To produce a suitable preparation of active compound, 1 part by weight of active compound is mixed with the stated amount of solvents and is diluted with water, containing an emulsifier concentration of 1000 ppm, to the desired concentration. […]
After the specified period of time, mortality in % is determined 100% means all beetle larvae have been killed and 0% means none of the beetle larvae have been killed. The mortality values determined thus are recalculated using the Colby-formula (see sheet 1).

`N#C/N=C1\SCCN1Cc1ccc(Cl)nc1` [Thiacloprid]: the “Efficacy in % after 1d” value in experiment [1] (0.8 g ai/ha, after 1 d) was 0%.

On to `C/C(=N\C#N)N(C)Cc1ccc(Cl)nc1` [Acetamiprid], for which the results for the “Efficacy in % after 6d” value in experiment [1] (1.6 g ai/ha) and in experiment [2] (0.8 g ai/ha) were 70% and 0%, respectively.

On to `CN/C(=N/CC1CCOC1)N[N+](=O)[O-]` (stereo not drawn) [Dinotefuran], for which the “Efficacy in % after 6d” value in experiment [1] (4.8 g ai/ha) is 0%; in experiment [1] (9.6 g ai/ha) it was 70%; in experiment [2] (4 g ai/ha), 0%. Besides, the “Efficacy in % after 2d” value in experiment [2] (20 g ai/ha) worked out at 0%.

On to `CS(=O)(=O)NC(=O)c1cccc(-c2cnc(-c3cccnc3)s2)n1` [Thiazolamid (II-11)], for which the “Efficacy in % after 2d” value in experiment [2] (20 g ai/ha) was found to be 0%.

`O=[N+]([O-])NC1=NCCN1Cc1ccc(Cl)nc1` [Imidacloprid]: the “Efficacy in % after 2d” value amounted to 0% in experiment [2] (0.8 g ai/ha); 0% in experiment [2] (4 g ai/ha); 70% in experiment [3] (320 ppm, after 2 d). In addition, the “Efficacy in % after 1d” value came to 0% in experiment [3] (80 ppm), 0% in experiment [3] (160 ppm) and 30% in experiment [3] (320 ppm).

For the compound `CN/C(=N\[N+](=O)[O-])NCc1cnc(Cl)s1` [Clothianidin], the “Efficacy in % after 6d” value in experiment [1] (0.15 g ai/ha) is listed as 0%. For the same compound, the “Efficacy in % after 2d” value in experiment [2] (4 g ai/ha) is 0%.

For `CN1COCN(Cc2cnc(Cl)s2)/C1=N\[N+](=O)[O-]` [Thiamethoxam], the “Efficacy in % after 2d” value in experiment [4] (after 2 d, Chinese cabbage leaf disks) came to 0%. The “Efficacy in % after 6d” value in experiment [4] (after 6 d) stood at 0%.
